Laboratory results as given in PubChem BioAssay AID1963862 (Molecular Pharmacology Branch, DTP, NCI, 2024).

Test system: KRAS patient-derived spheroids with HUVEC/MSC, viability
Test: Anticancer human tumor 941728-121-R-J1-PDC patient-derived lung adenocarcinoma cell line growth inhibition [KRAS2]
Conditions: for IC50: curve of first compound; for viability, T/C: stronger effect = lower value
Outline: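 KRAS-mutant tumor cells were grown as spheroids with HUVEC endothelial cells and human MSCs as stroma. Targeted agents were tested alone and with KRAS pathway inhibitors. Doses started at or near clinical Cmax, or 10 microM, descending half-log.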

[1] = second compound 0.1 µM, first compound 0.000316 µM
[2] = second compound 0.1 µM, first compound 0.001 µM
[3] = second compound 0.1 µM, first compound 0.00316 µM
[4] = second compound 0.1 µM, first compound 0.01 µM
[5] = second compound 0.1 µM, first compound 0.0316 µM
[6] = second compound 0.316 µM, first compound 0.000316 µM
[7] = second compound 0.316 µM, first compound 0.001 µM
[8] = second compound 0.316 µM, first compound 0.00316 µM
[9] = second compound 0.316 µM, first compound 0.01 µM
[10] = second compound 0.316 µM, first compound 0.0316 µM
[11] = second compound 1 µM, first compound 0.000316 µM
[12] = second compound 1 µM, first compound 0.001 µM
[13] = second compound 1 µM, first compound 0.00316 µM
[14] = second compound 1 µM, first compound 0.01 µM
[15] = second compound 1 µM, first compound 0.0316 µM
[16] = second compound 3.16 µM, first compound 0.000316 µM
[17] = second compound 3.16 µM, first compound 0.001 µM
[18] = second compound 3.16 µM, first compound 0.00316 µM
[19] = second compound 3.16 µM, first compound 0.01 µM
[20] = second compound 3.16 µM, first compound 0.0316 µM
[21] = second compound 10 µM, first compound 0.000316 µM
[22] = second compound 10 µM, first compound 0.001 µM
[23] = second compound 10 µM, first compound 0.00316 µM
[24] = second compound 10 µM, first compound 0.01 µM
[25] = second compound 10 µM, first compound 0.0316 µM
[26] = second compound 0.1 µM, first compound 0.1 µM
[27] = second compound 0.316 µM, first compound 0.1 µM
[28] = second compound 1 µM, first compound 0.1 µM
[29] = second compound 3.16 µM, first compound 0.1 µM
[30] = second compound 10 µM, first compound 0.1 µM
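Further: spheroids exposed to agents for seven days before readout.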

| Structure (SMILES) | IC50 (second compound 0.1 µM) [nM] | IC50 (second compound 0.316 µM) [nM] | IC50 (second compound 1 µM) [nM] | IC50 (second compound 3.16 µM) [nM] | IC50 (second compound 10 µM) [nM] | viability, T/C [1] [%] | viability, T/C [2] [%] | viability, T/C [3] [%] | viability, T/C [4] [%] | viability, T/C [5] [%] | viability, T/C [6] [%] | viability, T/C [7] [%] | viability, T/C [9] [%] | viability, T/C [10] [%] | viability, T/C [14] [%] | viability, T/C [15] [%] | viability, T/C [19] [%] | viability, T/C [20] [%] | viability, T/C [24] [%] | viability, T/C [25] [%] | further results |
| --- | --- | --- | --- | --- | --- | --- | --- | --- | --- | --- | --- | --- | --- | --- | --- | --- | --- | --- | --- | --- | --- |
| CC(=O)Nc1cccc(-n2c(=O)n(C3CC3)c(=O)c3c(Nc4ccc(I)cc4F)n(C)c(=O)c(C)c32)c1 + CC1OCC2(CCN(c3cnc(Sc4ccnc(N)c4Cl)c(N)n3)CC2)C1N | < 0.1 | < 0.1 | < 0.1 | < 0.1 | < 0.1 | 40.5 | 40.2 | 39.1 | 36.4 | 27.9 | 39.2 | 34.3 | 26.4 | 23.1 | 21.4 | 18.2 | 14.5 | 13.6 | 12.7 | 10.6 | viability, T/C (second compound 0.1 µM, first compound 0.0001 µM): 47.1%; viability, T/C (second compound 0.316 µM, first compound 0.0001 µM): 38.1%; viability, T/C [8]: 30.9%; viability, T/C (second compound 1 µM, first compound 0.0001 µM): 32.4%; viability, T/C [11]: 31.1%; viability, T/C [12]: 24.8%; viability, T/C [13]: 22%; viability, T/C (second compound 3.16 µM, first compound 0.0001 µM): 21.6%; viability, T/C [16]: 17.2%; viability, T/C [17]: 14.5%; viability, T/C [18]: 15.1%; viability, T/C (second compound 10 µM, first compound 0.0001 µM): 15.2%; viability, T/C [21]: 12.9%; viability, T/C [22]: 11.8%; viability, T/C [23]: 10.4% |
| CC(=O)OC12COC1CC(O)C1(C)C(=O)C(O)C3=C(C)C(OC(=O)C(O)C(NC(=O)OC(C)(C)C)c4ccccc4)CC(O)(C(OC(=O)c4ccccc4)C21)C3(C)C (stereo not given) + CC1OCC2(CCN(c3cnc(Sc4ccnc(N)c4Cl)c(N)n3)CC2)C1N | < 10 | < 10 | < 10 | < 10 | < 10 |  |  |  | 42.3 | 34.6 |  |  | 37.1 | 34.4 | 49.8 | 52.4 | 24.4 | 23.3 | 26.5 | 25.6 | viability, T/C [26]: 33.9%; viability, T/C (second compound 0.1 µM, first compound 0.316 µM): 39.2%; viability, T/C (second compound 0.1 µM, first compound 1 µM): 39.5%; viability, T/C (second compound 0.1 µM, first compound 3.16 µM): 41.6%; viability, T/C [27]: 30.2%; viability, T/C (second compound 0.316 µM, first compound 0.316 µM): 32.1%; viability, T/C (second compound 0.316 µM, first compound 1 µM): 37.2%; viability, T/C (second compound 0.316 µM, first compound 3.16 µM): 38.9%; viability, T/C [28]: 44%; viability, T/C (second compound 1 µM, first compound 0.316 µM): 45.9%; viability, T/C (second compound 1 µM, first compound 1 µM): 53.4%; viability, T/C (second compound 1 µM, first compound 3.16 µM): 54%; viability, T/C [29]: 21.5%; viability, T/C (second compound 3.16 µM, first compound 0.316 µM): 27.3%; viability, T/C (second compound 3.16 µM, first compound 1 µM): 29.8%; viability, T/C (second compound 3.16 µM, first compound 3.16 µM): 27.4%; viability, T/C [30]: 23.1%; viability, T/C (second compound 10 µM, first compound 0.316 µM): 24.8%; viability, T/C (second compound 10 µM, first compound 1 µM): 30.1%; viability, T/C (second compound 10 µM, first compound 3.16 µM): 30.2% |
| CN(C)C/C=C/C(=O)Nc1cc2c(Nc3ccc(F)c(Cl)c3)ncnc2cc1O[C@H]1CCOC1 + CC1OCC2(CCN(c3cnc(Sc4ccnc(N)c4Cl)c(N)n3)CC2)C1N | < 0.316 | < 0.316 | > 100 | < 0.316 | 0.52 | 38.3 | 41.9 | 45.5 | 44.5 | 41.4 | 33.7 | 35.2 | 42.3 | 45.8 | 70.6 | 58.4 | 31.6 | 31.3 | 52.5 | 31.3 | viability, T/C [26]: 43.3%; viability, T/C [8]: 43.1%; viability, T/C [27]: 41.2%; viability, T/C [11]: 70.1%; viability, T/C [12]: 52.4%; viability, T/C [13]: 63.1%; viability, T/C [28]: 51.9%; viability, T/C [16]: 29.7%; viability, T/C [17]: 28.3%; viability, T/C [18]: 30.2%; viability, T/C [29]: 36.7%; viability, T/C [21]: 54.6%; viability, T/C [22]: 45%; viability, T/C [23]: 30.6%; viability, T/C [30]: 31% |
